Assay results taken from patent publication US10357486B2, “Treatment of cognitive impairment with PDE4 inhibitor” (Universiteit Maastricht, priority 2013, dated 2019).

Legend:
[1] = tested on: 60 to 80 years old subjects (Impaired Elderly and Healthy Elderly); test: Spatial Memory Task and Stroop task in 60 to 80 years old subjects, interim analysis; assay type: in vivo, human; conditions: 100, 250, 1000 mcg
Experimental: The study is conducted according to a double-blind, placebo-controlled, four-period cross-over design. Forty healthy subjects, both male and female within an age range of 60 to 80 years are planned to be included in the study in 2 groups: 1) 20 subjects with a memory performance between 1-2 Standard Deviation below the average for their age, gender, and educated level (Impaired Elderly) and 2) 20 subjects with age (±3 years), gender, and educational level matched (in order to speed up the study matching was stopped after the interim analysis) with an average memory performance between 0.5 Standard Deviation below and 0.5 Standard Deviation above from normative values (Healthy Elderly). Classification in terms of impaired or healthy elderly will be determined by a one-off testing of memory performance using the Rey Verbal Learning Task (Rey A; L'examen psychologique dans les cas d'encephalopathy traumatique 1958 Paris; Presses Universitaire de France; or Van der Elst et al; J Int Neuropsychol Soc 2005, 11 (3), pp 290-302) according to fully standardized procedures as applied in The Maastricht Aging Study (Jolles et al; Maastricht Aging Study; determinants of cognitive aging; Maastricht, The Netherlands, Neuropsych Publishers 1995). […]

[2] = tested on: xylazine/ketamine induced α2-adrenergic receptor-mediated anesthesia; test: xylazine/ketamine induced α2-adrenergic receptor-mediated anesthesia test (emetic potential); assay type: in vivo; conditions: dose of 3.0 mg/kg
Text: Since emesis is a typical side-effect of phosphodiesterase 4 inhibitors the emetic potential of roflumilast and rolipram was investigated in parallel using the xylazine/ketamine induced α2-adrenergic receptor-mediated anesthesia test. The results confirmed that the two phosphodiesterase 4 inhibitors have different effects on emesis.

[3] = tested on: healthy adults (18 to 35 years); test: Spatial Memory Task, Stroop task and Continuous Performance task in healthy adults; assay type: in vivo, human; conditions: 100 mcg, 300 mcg, 1000 mcg single administration
Experimental: In addition to the VLT (immediate recall and delayed recall), the subjects were also tested in the Spatial Memory Task, the Stroop task and the Continuous Performance task (a description of these additional cognitive battery tests can be found in Example 3).
Spatial memory task (SMT) The spatial memory task assesses spatial memory and is based on the object relocation task by Postma and colleagues (Kessels, Postma et al, Behav Res Methods Instrum Comput. 1999, Vol 31(3) pp 423-428). It consists of one immediate and two delayed conditions. In the immediate condition, a set of 10 pictures will be presented one by one on different locations within a white square on a computer screen. All pictures are everyday, easy-to-name objects, presented in gray scale (±3.5×5 cm). Each picture will be presented for 2000 msec with an interstimulus interval of 1000 msec. […]
Twenty-four hours after the immediate condition, subjects will return to the lab and perform the task again. […] As with the other tests, the EEG will be recorded during this task and this will later be analysed. No EEG will be recorded during the 24h-measurement. […]
Stroop task The Stroop task is well known for its ability to induce interference, and assesses response inhibition and focused attention. […] However, because of the urge to read the printed words (even if one is asked to ignore them) interference occurs. […]

## O=C(Nc1c(Cl)cncc1Cl)c1ccc(OC(F)F)c(OCC2CC2)c1 [roflumilast, N-(3,5-dichloropyridin-4-yl)-3-cyclopropylmethoxy-4-difluoromethoxybenzamide]
[1]
  difference between placebo and drug treatment in the Spatial Memory Task and Stroop task: No statistically significant differences
[2]
  emetic potential: tendency towards emetic potential
[3]
  difference between placebo and drug treatment in the Spatial Memory Task, the Stroop task and the Continuous Performance task: No statistically significant differences
